Data on 20 compounds can be found in ChEMBL document CHEMBL4251590, “Novel vanillin derivatives: Synthesis, anti-oxidant, DNA and cellular protection properties” (Eur J Med Chem, 2018).

Calls of active or inactive are those of the source. No cut-off for these calls is given here.

Data set [1] in a line: Antioxidant activity assessed as DPPH radical scavenging activity after 30 mins. It is filed as functional. Background: DPPH is a stable violet radical that fades when it is reduced.
A short description of data set [2]: Antioxidant activity assessed as ferric ion reducing activity by measuring trolox equivalents using Fe3+-TPTZ after 30 mins by FRAP assay. It is filed as functional.
Data set [3] relates to SH-SY5Y. As to the kind of experiment: Cytoprotective activity against H2O2-induced oxidative damage in human SH-SY5Y cells at 5 uM preincubated for 24 hrs followed by H2O2 addition and measured after 24 hrs by MTT assay. It is filed as functional. For orientation: Tetrazolium assays rely on reduction of a dye to a coloured formazan, in cell work by metabolically active cells.

The test system of data set [4] is SH-SY5Y. As to the kind of experiment: Cytoprotective activity against H2O2-induced oxidative damage in human SH-SY5Y cells at 200 uM preincubated for 24 hrs followed by H2O2 addition and measured after 24 hrs by MTT assay. It is filed as functional.
The nature of data set [5]: Antioxidant activity assessed as trolox equivalents of AAPH-induced radical scavenging activity pretreated for 30 mins followed by […] challenge measured every 2 mins for 2 hrs by ORAC-FL assay. It is filed as functional.
Data set [6] relates to DNA. Briefly: Antioxidant activity assessed as protection against AAPH-induced DNA damage in Escherichia coli plasmid pbr322 DNA after 1 hr by agarose gel electrophoresis method. It is filed as functional.
In data set [7] the test system is SH-SY5Y. As to the kind of experiment: Cytotoxicity against human SH-SY5Y cells up to 1 mM incubated for 24 hrs by MTT assay. It is filed as cell-based.
Data set [8] deals with DNA. As to the kind of experiment: Antioxidant activity assessed as protection against AAPH-induced DNA damage in Escherichia coli plasmid pbr322 DNA assessed as DNA intensity level at 0.11 uM after 1 hr by agarose gel electrophoresis method (reference value: 0%). The class given is functional.
The test system of data set [9] is SH-SY5Y. As to the kind of experiment: Cytoprotective activity against H2O2-induced oxidative damage in human SH-SY5Y cells at 10 uM preincubated for 24 hrs followed by H2O2 addition and measured after 24 hrs by MTT assay. The class given is functional.
The test system of data set [10] is SH-SY5Y. As to the kind of experiment: Cytotoxicity against human SH-SY5Y cells up to 20 uM incubated for 24 hrs by MTT assay. The class given is cell-based.
In data set [11] the test system is DNA. As to the kind of experiment: Antioxidant activity assessed as protection against AAPH-induced DNA damage in Escherichia coli plasmid pbr322 DNA assessed as DNA intensity level at 0.33 uM after 1 hr by agarose gel electrophoresis method (reference value: 0%). It is filed as functional.
The subject of data set [12] is DNA. As to the kind of experiment: Antioxidant activity assessed as protection against AAPH-induced DNA damage in Escherichia coli plasmid pbr322 DNA assessed as DNA intensity level at 2.6 uM after 1 hr by agarose gel electrophoresis method (reference value: 0%). It is filed as functional.
In data set [13] the test system is DNA. Briefly: Antioxidant activity assessed as protection against AAPH-induced DNA damage in Escherichia coli plasmid pbr322 DNA assessed as DNA intensity level at 1 uM after 1 hr by agarose gel electrophoresis method (reference value: 0%). It is filed as functional.
Data set [14] deals with DNA. As to the kind of experiment: Antioxidant activity assessed as protection against AAPH-induced DNA damage in Escherichia coli plasmid pbr322 DNA assessed as DNA intensity level at 0.65 uM after 1 hr by agarose gel electrophoresis method (reference value: 0%). It is filed as functional.
Data set [15] concerns DNA. Briefly: Antioxidant activity assessed as protection against AAPH-induced DNA damage in Escherichia coli plasmid pbr322 DNA assessed as DNA intensity level at 4 uM after 1 hr by agarose gel electrophoresis method (reference value: 0%). The class given is functional.
Data set [16] relates to SH-SY5Y. As to the kind of experiment: Cytoprotective activity against H2O2-induced oxidative damage in human SH-SY5Y cells at 0.1 uM preincubated for 24 hrs followed by H2O2 addition and measured after 24 hrs by MTT assay. It is filed as functional.
The test system of data set [17] is SH-SY5Y. Briefly: Cytoprotective activity against H2O2-induced oxidative damage in human SH-SY5Y cells up to 800 uM preincubated for 24 hrs followed by H2O2 addition and measured after 24 hrs by MTT assay. It is filed as functional, cell-based.
Data set [18] in a line: Antioxidant activity assessed as DPPH radical scavenging activity up to 250 uM after 30 mins. It is filed as functional.

A word on the IC50: it is the concentration needed to halve the response being measured. As to `COc1cc(CN(CCCCO)Cc2ccc(O)c(OC)c2)ccc1O`, the IC50 in data set [1] amounted to 21 µM. In data set [2], the Activity stood at 0.62 equiv.

For `COc1cc(CN(CCCCCCO)Cc2ccc(O)c(OC)c2)ccc1O`, in data set [1], the 50% inhibitory concentration (IC50) is 22.2 µM. For the same compound, in data set [2], the Activity was found to be 0.64 equiv.

As to `COc1cc(CN(CCO)Cc2ccc(O)c(OC)c2)ccc1O`, the IC50 in data set [1] worked out at 12.8 µM. In [2], the Activity came out at 0.62 equiv.

Consider `COc1cc(CN(CCCO)Cc2ccc(O)c(OC)c2)ccc1O`, for which the figures for the half-inhibitory concentration (IC50) in data set [1] and in data set [6] were 13.7 µM and 3.6 µM, respectively. Also, the Activity in [3] was 6%; in data set [4], 20%; in data set [5], 6.02 equiv; in [2] it was 0.68 equiv; in data set [7] it was “Non-Toxic”.

As to `COc1cc(CN(Cc2ccc(O)c(OC)c2)c2ccc(N(Cc3ccc(O)c(OC)c3)Cc3ccc(O)c(OC)c3)cc2)ccc1O`, the Activity in data set [8] was 15.8%; in data set [9] it was 30%; in data set [10], “Non-Toxic”; in data set [5], 20.4 equiv; in data set [11] it was 25.1%; in data set [2], 5.29 equiv. The Activity in [12] came out at 90.5%; in data set [13], 81.9%; in data set [14], 59.7%; in [15] it was 96.1%; in [16] it was 8%. For the same compound, the figures for the IC50 in data set [1] and in data set [6] were 5.8 µM and 0.6 µM, respectively.

Consider `COc1cc(CN(CCCO)Cc2cc(OC)c(O)c(OC)c2)cc(OC)c1O`, for which, in [1], the IC50 was 12.3 µM. In data set [2], the Activity was determined as 1.14 equiv.

For `Oc1ccc(CN(Cc2ccc(O)cc2)c2ccc(N(Cc3ccc(O)cc3)Cc3ccc(O)cc3)cc2)cc1`, the IC50 in data set [1] stood at 98 µM. Also, the Activity in data set [2] is 2.78 equiv.

On to `COc1cc(CN(Cc2ccccc2)Cc2cc(OC)c(O)c(OC)c2)cc(OC)c1O`, for which the IC50 in data set [1] was found to be 15.4 µM. Also, in data set [2], the Activity stood at 1.11 equiv.

As for `COc1cc(C=O)ccc1O` [VANILLIN], in data set [17], the result was inactive. Also, the IC50 was found to be 4050 µM in [1] and 5.6 µM in [6]. Further, the Activity in data set [5] was 2.19 equiv; in data set [2], 0.11 equiv.

For `COc1cc(CN(CCCN(Cc2ccc(O)c(OC)c2)Cc2ccc(O)c(OC)c2)Cc2ccc(O)c(OC)c2)ccc1O`, in data set [18], the outcome was inactive. Also, the values for the Activity in data set [5] and in [2] were 7.54 equiv and 0.74 equiv, respectively. In addition, the IC50 in [6] is 13.9 µM.

For the compound `COc1cc(CNCc2ccccc2)ccc1O`, the results for the IC50 in data set [1] and in data set [6] were 107 µM and 4.1 µM, respectively. The values for the Activity in [5] and in [2] were 3.16 equiv and 0.16 equiv, respectively.

As to `c1ccc(CN(Cc2ccccc2)c2ccc(N(Cc3ccccc3)Cc3ccccc3)cc2)cc1`, the half-maximal inhibitory concentration (IC50) in [1] turned out to be 144 µM. Further, in data set [2], the Activity is 2.81 equiv.

`COc1cc(C=O)cc(OC)c1O` [SYRINGALDEHYDE]: the IC50 in [1] was determined as 1150 µM; in data set [6], 9.5 µM. Moreover, the Activity was 1.45 equiv in data set [5] and 0.93 equiv in data set [2].

In the case of `COc1cc(CN(CCCN)Cc2ccc(O)c(OC)c2)ccc1O`, the outcome in data set [18] was inactive. Besides, the Activity in data set [5] was 4.08 equiv; in data set [2], 0.28 equiv. In data set [6], the concentration for half-maximal inhibition (IC50) turned out to be 61.5 µM.

For `CCCCN(Cc1ccc(O)c(OC)c1)Cc1ccc(O)c(OC)c1`, in data set [1], the 50% inhibitory concentration (IC50) amounted to 21.9 µM. The Activity in data set [2] was found to be 0.6 equiv.

As for `COc1cc(/C=N/Cc2ccccc2)ccc1O`, the IC50 in [1] was determined as 248 µM; in [6], 3.8 µM. In addition, the Activity in data set [5] was 1.85 equiv; in data set [2], 0.06 equiv.

On to `COc1cc(CN(CCCCCO)Cc2ccc(O)c(OC)c2)ccc1O`, for which, in data set [1], the IC50 came out at 24 µM. Besides, in [2], the Activity is 0.63 equiv.

Turning to `COc1cccc(CN(Cc2cccc(OC)c2)c2ccc(N(Cc3cccc(OC)c3)Cc3cccc(OC)c3)cc2)c1`, in data set [18], the outcome was inactive. Also, the Activity in data set [2] worked out at 2.54 equiv. Besides, the half-inhibitory concentration (IC50) in data set [6] stood at 13.6 µM.

As to `COc1cc(CN(Cc2ccccc2)Cc2ccc(O)c(OC)c2)ccc1O`, the figures for the IC50 in data set [1] and in [6] were 29.7 µM and 3.8 µM, respectively. For the same compound, the Activity in data set [5] was 5.34 equiv; in data set [2], 0.55 equiv.

`COc1cc(CN(Cc2ccc(O)c(OC)c2)[C@H]2CC[C@H](N(Cc3ccc(O)c(OC)c3)Cc3ccc(O)c(OC)c3)CC2)ccc1O`: in data set [1], the IC50 worked out at 138 µM. In addition, the Activity in data set [2] came out at 0.56 equiv.
